What all share (format): functional
The test system of experiment [1] is BT-549. As to the kind of experiment: Growth inhibition of human BT549 cells assessed as cell growth at 10^-5 M incubated for 48 hrs by sulforhodamine B assay relative to control. As to conditions: BT-549, 48 h, read-out: Activity. (In general: Sulforhodamine B stains cellular protein and so reports cell mass.)
The test system of experiment [2] is MOLT-4. As to the kind of experiment: Growth inhibition of human MOLT4 cells assessed as cell growth at 1 uM incubated for 48 hrs by sulforhodamine B assay relative to control. As to conditions: MOLT-4, 48 h, read-out: Activity.
Experiment [3] deals with NCI-H226. As to the kind of experiment: Growth inhibition of human NCI-H226 cells incubated for 48 hrs by sulforhodamine B assay. As to conditions: NCI-H226, 48 h.
Experiment [4] has as its system EKVX. As to the kind of experiment: Growth inhibition of human EKVX cells incubated for 48 hrs by sulforhodamine B assay.
In experiment [5] the test system is OVCAR-8. Description: Growth inhibition of human OVCAR8 cells assessed as cell growth at 10^-5 M incubated for 48 hrs by sulforhodamine B assay relative to control. To be noted: OVCAR-8, 48 h, read-out: Activity.
Experiment [6] deals with SK-MEL-5. Description: Growth inhibition of human SK-MEL-5 cells assessed as cell growth at 10^-5 M incubated for 48 hrs by sulforhodamine B assay relative to control. As to conditions: SK-MEL-5, 48 h, read-out: Activity.
Experiment [7] concerns HCC 2998. As to the kind of experiment: Growth inhibition of human HCC2998 cells assessed as cell growth at 10^-5 M incubated for 48 hrs by sulforhodamine B assay relative to control. As to conditions: HCC 2998, 48 h, read-out: Activity.
Experiment [8] concerns SK-OV-3. Description: Growth inhibition of human SKOV3 cells assessed as cell growth at 10^-5 M incubated for 48 hrs by sulforhodamine B assay relative to control. As to conditions: SK-OV-3, 48 h, read-out: Activity.
The subject of experiment [9] is SN12C. Description: Growth inhibition of human SN12C cells assessed as cell growth at 10^-5 M incubated for 48 hrs by sulforhodamine B assay relative to control. As to conditions: read-out: Activity.
For experiment [10], the system named is IGROV-1. As to the kind of experiment: Growth inhibition of human IGROV1 cells assessed as cell growth at 10^-5 M incubated for 48 hrs by sulforhodamine B assay relative to control. As to conditions: IGROV-1, 48 h, read-out: Activity.
The test system of experiment [11] is DU-145. As to the kind of experiment: Growth inhibition of human DU145 cells assessed as cell growth at 10^-5 M incubated for 48 hrs by sulforhodamine B assay relative to control. To be noted: DU-145, 48 h, read-out: Activity.
Experiment [12] deals with SNB-19. As to the kind of experiment: Growth inhibition of human SNB19 cells assessed as cell growth at 10^-5 M incubated for 48 hrs by sulforhodamine B assay relative to control. As to conditions: SNB-19, 48 h, read-out: Activity.
Experiment [13] deals with EKVX. Description: Growth inhibition of human EKVX cells assessed as cell growth at 10^-5 M incubated for 48 hrs by sulforhodamine B assay relative to control. As to conditions: read-out: Activity.
In experiment [14] the test system is MDA-MB-468. Description: Growth inhibition of human MDA-MB-468 cells assessed as cell growth at 10^-5 M incubated for 48 hrs by sulforhodamine B assay relative to control. As to conditions: MDA-MB-468, 48 h, read-out: Activity.
Experiment [15] has as its system HT-29. Description: Growth inhibition of human HT-29 cells assessed as cell growth at 10^-5 M incubated for 48 hrs by sulforhodamine B assay relative to control. As to conditions: HT-29, 48 h, read-out: Activity.
Experiment [16] relates to OVCAR-5. Description: Growth inhibition of human OVCAR5 cells assessed as cell growth at 10^-5 M incubated for 48 hrs by sulforhodamine B assay relative to control. To be noted: OVCAR-5, 48 h, read-out: Activity.
Experiment [17] relates to LOX IMVI. As to the kind of experiment: Growth inhibition of human LOXIMVI cells assessed as cell growth at 10^-5 M incubated for 48 hrs by sulforhodamine B assay relative to control. To be noted: read-out: Activity.
Experiment [18] deals with OVCAR-3. Description: Growth inhibition of human OVCAR3 cells assessed as cell growth at 10^-5 M incubated for 48 hrs by sulforhodamine B assay relative to control. As to conditions: OVCAR-3, 48 h, read-out: Activity.
The test system of experiment [19] is OVCAR-4. As to the kind of experiment: Growth inhibition of human OVCAR4 cells assessed as cell growth at 10^-5 M incubated for 48 hrs by sulforhodamine B assay relative to control. As to conditions: OVCAR-4, 48 h, read-out: Activity.
For experiment [20], the system named is RXF 393. As to the kind of experiment: Growth inhibition of human RXF393 cells assessed as cell growth at 10^-5 M incubated for 48 hrs by sulforhodamine B assay relative to control. To be noted: RXF 393, 48 h, read-out: Activity.
Experiment [21] has as its system T47D. As to the kind of experiment: Growth inhibition of human T47D cells assessed as cell growth at 10^-5 M incubated for 48 hrs by sulforhodamine B assay relative to control. As to conditions: read-out: Activity.
In experiment [22] the test system is ACHN. Description: Growth inhibition of human ACHN cells assessed as cell growth at 10^-5 M incubated for 48 hrs by sulforhodamine B assay relative to control. To be noted: read-out: Activity.
In experiment [23] the test system is TK-10. Description: Growth inhibition of human TK10 cells assessed as cell growth at 10^-5 M incubated for 48 hrs by sulforhodamine B assay relative to control. To be noted: TK-10, 48 h, read-out: Activity.
Experiment [24] has as its system SF-539. Description: Growth inhibition of human SF539 cells assessed as cell growth at 10^-5 M incubated for 48 hrs by sulforhodamine B assay relative to control. As to conditions: SF-539, 48 h, read-out: Activity.
Experiment [25] relates to SNB-75. Description: Growth inhibition of human SNB75 cells assessed as cell growth at 10^-5 M incubated for 48 hrs by sulforhodamine B assay relative to control. As to conditions: SNB-75, 48 h, read-out: Activity.
In experiment [26] the test system is SK-MEL-28. Description: Growth inhibition of human SK-MEL-28 cells assessed as cell growth at 10^-5 M incubated for 48 hrs by sulforhodamine B assay relative to control. To be noted: SK-MEL-28, 48 h, read-out: Activity.
The test system of experiment [27] is MOLT-4. Description: Growth inhibition of human MOLT4 cells assessed as cell growth at 10^-5 M incubated for 48 hrs by sulforhodamine B assay relative to control. To be noted: MOLT-4, 48 h, read-out: Activity.
Experiment [28] concerns UO-31. As to the kind of experiment: Growth inhibition of human UO31 cells assessed as cell growth at 10^-5 M incubated for 48 hrs by sulforhodamine B assay relative to control. To be noted: UO-31, 48 h, read-out: Activity.
Experiment [29] concerns UACC-257. As to the kind of experiment: Growth inhibition of human UACC257 cells assessed as cell growth at 10^-5 M incubated for 48 hrs by sulforhodamine B assay relative to control. To be noted: UACC-257, 48 h, read-out: Activity.
The test system of experiment [30] is UACC-62. Description: Growth inhibition of human UACC62 cells assessed as cell growth at 10^-5 M incubated for 48 hrs by sulforhodamine B assay relative to control. To be noted: UACC-62, 48 h, read-out: Activity.
Experiment [31] deals with MDA-MB-231. Description: Growth inhibition of human MDA-MB-231 cells assessed as cell growth at 10^-5 M incubated for 48 hrs by sulforhodamine B assay relative to control. To be noted: MDA-MB-231, 48 h, read-out: Activity.
Setting [32] is: read-out: LC50 (the source's name).
Setting [33] is: read-out: pLC50 (the source's name) (converted).

In the case of `c1ccc2c3c([nH]c2c1)C(c1ccc(C2NCCc4c2[nH]c2ccccc42)cc1)NCC3` (racemic), the growth at 10 µM in experiment [1] is 57 to 86.9%; in experiment [5] it was -41.5%. Besides, the growth at 1 µM in experiment [2] was found to be 13%. For the same molecule, the GI50 in experiment [3] (read-out: GI50) was 1960 nM; in experiment [3] (read-out: pGI50 (converted)), 1950 nM; in experiment [4] (read-out: GI50) it was 1420 nM; in [4] (read-out: pGI50 (converted)), 2240 nM. Moreover, the CC50 in experiment [3] (setting [32]) is 9.1 µM; in experiment [3] (setting [33]), 9.12 µM; in experiment [4] (setting [32]), 8.12 µM; in experiment [4] (setting [33]), 8.13 µM. The TGI in experiment [3] (read-out: TGI) is 4.23 µM; in [3] (read-out: pTGI (converted)) it was 4.27 µM; in [4] (read-out: TGI), 3.39 µM; in experiment [4] (read-out: pTGI (converted)), 3.39 µM.
As to `c1ccc2[nH]c(-c3ccc(-c4nccc5c4[nH]c4ccccc45)cc3)nc2c1`, the growth at 10 µM in experiment [6] is 16 to 62.6%; in experiment [7], 19 to 74%; in [8], 22 to 104%; in [9] it was 60.9%; in experiment [10] it was 25 to 94.5%; in experiment [11], 19 to 67.4%. Further, the growth at 10 µM in experiment [5] was 4 to 16.5%; in [12] it was 27 to 55.1%; in experiment [13], 13 to 81.2%. The growth at 1 µM in experiment [2] came to 93%. The GI50 in [3] (read-out: GI50) is 2270 nM; in experiment [3] (read-out: pGI50 (converted)), 2290 nM; in experiment [4] (read-out: GI50) it was 3450 nM; in experiment [4] (read-out: pGI50 (converted)) it was 3470 nM. Besides, the CC50 in experiment [3] (setting [32]) was 9.73 µM; in [3] (setting [33]), 97.7 µM; in [4] (setting [32]) it was > 1 µM; in experiment [4] (setting [33]), > 100 µM. The results for the TGI in experiment [3] (read-out: TGI), in [3] (read-out: pTGI (converted)) and in [4] (read-out: pTGI (converted)) were 5.56 µM, 5.5 µM and 17 µM, respectively.
Consider `c1ccc2c(c1)[nH]c1c(-c3ccc(-c4nccc5c4[nH]c4ccccc45)cc3)nccc12`, for which the growth at 10 µM is 79% in experiment [6]; 87.6% in experiment [1]; 105% in experiment [14]; 88.9% in experiment [15]; 110% in experiment [16]; 89.4% in experiment [17]. Besides, the growth at 10 µM in experiment [7] was 102%; in experiment [18] it was 101%; in experiment [8], 88%; in [19], 105%; in [20] it was 111%; in experiment [21] it was 75.8%. Moreover, the growth at 10 µM in experiment [9] was 94.5%; in experiment [22] it was 99.5%; in experiment [23] it was 105%; in experiment [10], 88.8%; in experiment [24], 109%; in [25], 82.5%. The growth at 10 µM was 122% in [11]; 110% in experiment [26]; 111% in experiment [5]; 97% in experiment [27]; 60.6% in experiment [28]; 119% in experiment [29]. The growth at 10 µM in experiment [12] worked out at 106%; in experiment [13], 89.5%; in [30] it was 105%; in experiment [31], 111%.

The record behind these values is ChEMBL document CHEMBL4004838, “Design and synthesis of novel phenyl -1, 4-beta-carboline-hybrid molecules as potential anticancer agents” (Eur J Med Chem, 2017).
